Results reported in ChEMBL document CHEMBL5137082, “Discovery of a Novel Vascular Disrupting Agent Inhibiting Tubulin Polymerization and HDACs with Potent Antitumor Effects” (J Med Chem, 2022).
The source made the active and inactive calls. The rule behind the calls is not given here.

How the values were obtained:
HepG2 [1] = experiment: Induction of apoptosis in human HepG2 cells assessed as early apoptotic cells at 15 nM incubated for 48 hrs by Annexin-V/PI-staining based flow cytometry (reference value: 4.61 +/- 0.46%); format: functional
[2] = Cardiotoxicity in ICR mouse allografted with mouse H22 cells assessed as effect on T wave at 20 mg/kg, iv administered qd measured after 21 days by ECG analysis; format: toxicity, organism-based; settings: in vivo, 504 h, time 21 day
Tubulin (Homo sapiens) = Tubulin (Homo sapiens) (UniProt P68371+Q9H4B7+P0DPH7+P68366+Q13509+Q71U36+P04350+Q3ZCM7+P07437+P68363+Q9BQE3+Q6PEY2+Q13885+Q9BVA1+Q9BUF5); experiment: Disruption of microtubule network in human HepG2 cells at 7.5 to 30 nM measured after 2 hrs by DAPI staining based immunofluorescence microscopic assay; format: cell-based; settings: dose 7.5-30 nM
Histone deacetylase 1 = Histone deacetylase 1 (Homo sapiens, UniProt Q13547); experiment: Inhibition of HDAC1 in human HeLa cells using BOC-K(Ac)-AMC as substrate measured after 30 mins by fluorescence based microtiter plate reader assay; format: cell-based
PC-3 [3] = experiment: Induction of apoptosis in human PC-3 cells assessed as mitochondrial membrane potential loss by measuring increase in green fluorescence at 7.5 nM incubated for 48 hrs by JC1 staining based flow cytometry analysis (reference value: 6.50 +/- 0.17%); format: functional
HepG2 [4] = experiment: Induction of apoptosis in human HepG2 cells assessed as late apoptotic cells at 7.5 nM incubated for 48 hrs by Annexin-V/PI-staining based flow cytometry (reference value: 2.53 +/- 0.34%); format: functional
HepG2 [5] = experiment: Induction of ROS generation in human HepG2 cells assessed as increase in ROS level at 30 nM incubated for 48 hrs by DCF-DA staining-based flow cytometry analysis (reference value: 3.73%); format: functional
[6] = Metabolic stability in mouse assessed as intrinsic clearance; format: ADME; settings: 1 h, 1 µM, time < 60 min
HepG2 [7] = experiment: Induction of apoptosis in human HepG2 cells assessed as upregulation of Bad protein expression measured after 24 hrs by Western blot analysis; format: functional, cell-based; settings: dose 7.5-30 nM, DDE = dose-dependent effect
[8] = Metabolic stability in mouse plasma assessed as compound remaining at 40 uM measured after 1 hrs by LC-MS/MS analysis (reference value: 100%); format: ADME, cell-free
HepG2 [9] = experiment: Induction of cell cycle arrest in human HepG2 cells assessed as accumulation G2 phase at 7.5 nM incubated for 48 hrs by propidium iodide staining based flow cytometry analysis (reference value: 23.55 +/- 0.29%); format: functional
[10] = Metabolic stability in mouse plasma assessed as half life at 40 uM measured upto 5 hrs by LC-MS/MS analysis; format: ADME, cell-free
HepG2 [11] = experiment: Induction of cell cycle arrest in human HepG2 cells assessed as accumulation G1 phase at 30 nM incubated for 48 hrs by propidium iodide staining based flow cytometry analysis (reference value: 59.32 +/- 0.77%); format: functional
[12] = Toxicity in ICR mouse allografted with mouse H22 cells assessed as effect on body weight at 20 mg/kg, iv administered qd measured after 21 days; format: organism-based; settings: in vivo, 504 h, time 21 day
MDA-MB-231 = experiment: Inhibition of cell migration in human MDA-MB-231 cells measured after 48 hrs by crystal violet staining based transwell assay; format: functional; settings: dose 7.5-30 nM, DDE = dose-dependent effect
HepG2 [13] = experiment: Induction of apoptosis in human HepG2 cells assessed as necrotic cells at 15 nM incubated for 48 hrs by Annexin-V/PI-staining based flow cytometry (reference value: 1.43 +/- 0.26%); format: functional
[14] = Toxicity in ICR mouse allografted with mouse H22 cells assessed as pathological changes in lung at 20 mg/kg, iv administered qd measured after 21 days by H and E staining based analysis; format: organism-based; settings: in vivo, 504 h, time 21 day
Histone deacetylase 8 = target: T1, Histone deacetylase 8 (Homo sapiens, UniProt Q9BY41); experiment: Inhibition of HDAC8 in human HeLa cells using BOC-K(Ac)-AMC as substrate measured after 30 mins by fluorescence based microtiter plate reader assay; format: cell-based
T1 sequence (Q9BY41 whole entry): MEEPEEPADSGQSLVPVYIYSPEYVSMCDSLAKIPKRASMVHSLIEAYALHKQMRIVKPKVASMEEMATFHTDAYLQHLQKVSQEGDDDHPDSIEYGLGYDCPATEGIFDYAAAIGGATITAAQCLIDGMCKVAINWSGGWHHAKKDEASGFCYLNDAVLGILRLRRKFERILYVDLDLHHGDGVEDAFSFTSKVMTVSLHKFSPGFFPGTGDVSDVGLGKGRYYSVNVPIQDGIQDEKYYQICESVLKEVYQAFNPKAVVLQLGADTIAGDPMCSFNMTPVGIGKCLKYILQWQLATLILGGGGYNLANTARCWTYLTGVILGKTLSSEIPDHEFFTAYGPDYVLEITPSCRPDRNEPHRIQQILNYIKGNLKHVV

Histone deacetylase 3 = Histone deacetylase 3 (Homo sapiens, UniProt O15379); experiment: Inhibition of HDAC3 in human HeLa cells using BOC-K(Ac)-AMC as substrate measured after 30 mins by fluorescence based microtiter plate reader assay; format: cell-based
H22 [15] = experiment: Antitumor activity against mouse H22 cells allografted in ICR mouse assessed as reduction in tumor weight at 20 mg/kg, iv administered qd measured after 21 days; format: functional; design: scale not given: the % may be the effect or the level left; settings: time 21 day
PC-3 [16] = experiment: Induction of apoptosis in human PC-3 cells assessed as mitochondrial membrane potential loss by measuring early apoptotic cells at 30 nM incubated for 48 hrs by JC1 staining based flow cytometry analysis (reference value: 6.50 +/- 0.17%); format: functional
HepG2 [17] = experiment: Induction of cell cycle arrest in human HepG2 cells assessed as accumulation G1 phase at 7.5 nM incubated for 48 hrs by propidium iodide staining based flow cytometry analysis (reference value: 59.32 +/- 0.77%); format: functional
Histone deacetylase 2 = Histone deacetylase 2 (Homo sapiens, UniProt Q92769); experiment: Inhibition of HDAC2 in human HepG2 cells assessed as increase in level of acetyl histone H3substrate incubated for 24 hrs by chemiluminescence based Western blotting analysis; format: cell-based; settings: dose 0.03-0.3 µM
HepG2 [18] = experiment: Induction of apoptosis in human HepG2 cells assessed as necrotic cells at 7.5 nM incubated for 48 hrs by Annexin-V/PI-staining based flow cytometry (reference value: 1.43 +/- 0.26%); format: functional
H22 [19] = experiment: Antitumor activity against mouse H22 cells allografted in ICR mouse assessed as reduction in tumor volume growth rate at 20 mg/kg, iv administered qd for 21 days measured after 12 days; format: functional, organism-based; settings: time 21.0 day
H22 [20] = experiment: Antitumor activity against mouse H22 cells allografted in ICR mouse assessed as inhibition of tumor growth at 20 mg/kg, iv administered qd for 21 days measured after 12 days; format: functional, organism-based; settings: time 21.0 day
HepG2 [21] = experiment: Induction of morphological changes in human HepG2 cells assessed as chromatin aggregation at 7.5 to 30 nM after 48 hrs by Hoechst 33258 staining based fluorescence microscopic analysis; format: functional, cell-based; settings: dose 7.5-30 nM
HepG2 [22] = experiment: Induction of apoptosis in human HepG2 cells assessed as viable cells at 7.5 nM incubated for 48 hrs by Annexin-V/PI-staining based flow cytometry (reference value: 91.44 +/- 0.74%); format: functional; settings: read-out: Activity

Histone deacetylase 2, sequence (Q92769 whole entry): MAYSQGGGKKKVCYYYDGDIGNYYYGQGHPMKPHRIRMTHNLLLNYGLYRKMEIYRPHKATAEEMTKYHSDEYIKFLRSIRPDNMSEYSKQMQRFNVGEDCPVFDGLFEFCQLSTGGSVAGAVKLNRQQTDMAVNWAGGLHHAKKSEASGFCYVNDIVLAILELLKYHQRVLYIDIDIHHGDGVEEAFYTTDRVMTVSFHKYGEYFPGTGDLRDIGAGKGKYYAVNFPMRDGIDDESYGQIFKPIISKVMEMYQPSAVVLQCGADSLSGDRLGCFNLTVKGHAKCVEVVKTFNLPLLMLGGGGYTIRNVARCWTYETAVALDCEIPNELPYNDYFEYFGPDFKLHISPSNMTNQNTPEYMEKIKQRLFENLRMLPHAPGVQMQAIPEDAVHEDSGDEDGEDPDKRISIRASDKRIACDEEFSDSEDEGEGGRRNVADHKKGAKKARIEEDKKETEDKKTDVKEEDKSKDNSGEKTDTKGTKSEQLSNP
Histone deacetylase 3, sequence (O15379 whole entry): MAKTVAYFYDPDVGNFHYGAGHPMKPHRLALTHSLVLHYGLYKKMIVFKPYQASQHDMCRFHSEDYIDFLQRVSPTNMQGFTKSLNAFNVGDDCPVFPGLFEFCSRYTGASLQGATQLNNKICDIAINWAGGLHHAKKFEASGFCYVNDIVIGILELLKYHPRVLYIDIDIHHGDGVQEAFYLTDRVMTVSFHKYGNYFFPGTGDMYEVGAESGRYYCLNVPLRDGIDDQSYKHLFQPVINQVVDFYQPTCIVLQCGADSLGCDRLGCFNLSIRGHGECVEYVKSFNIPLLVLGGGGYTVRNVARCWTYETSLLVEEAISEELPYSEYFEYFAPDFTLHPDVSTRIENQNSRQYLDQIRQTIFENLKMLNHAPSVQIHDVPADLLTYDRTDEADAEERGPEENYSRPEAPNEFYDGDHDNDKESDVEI
Histone deacetylase 1, sequence (Q13547 whole entry): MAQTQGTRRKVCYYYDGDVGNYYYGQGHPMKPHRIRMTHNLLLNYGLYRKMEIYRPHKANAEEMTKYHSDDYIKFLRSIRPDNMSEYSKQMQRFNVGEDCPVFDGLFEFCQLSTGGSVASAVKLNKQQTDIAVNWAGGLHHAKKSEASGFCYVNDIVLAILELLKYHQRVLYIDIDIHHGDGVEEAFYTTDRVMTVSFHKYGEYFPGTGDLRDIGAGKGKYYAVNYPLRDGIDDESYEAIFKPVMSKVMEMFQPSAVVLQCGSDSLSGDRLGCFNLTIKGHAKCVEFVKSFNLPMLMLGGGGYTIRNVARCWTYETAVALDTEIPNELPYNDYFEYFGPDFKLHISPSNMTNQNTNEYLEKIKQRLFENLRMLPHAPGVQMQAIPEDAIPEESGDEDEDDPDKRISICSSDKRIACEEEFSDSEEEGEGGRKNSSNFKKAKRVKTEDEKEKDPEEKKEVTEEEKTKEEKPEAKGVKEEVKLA

In the case of `COc1ccc(CNC(=O)c2cc(F)ccc2N2CCOCC2)cc1/C=C/C(=O)NO`, the Activity (HepG2 [1]) is reported as 26.84%, the Activity [2] is reported as “Non-Toxic” and the Activity (Tubulin (Homo sapiens)) is reported as “Active”. It also gave an IC50 (Histone deacetylase 1) of 115 nM, an Activity (PC-3 [3]) of 23.22% and an Activity (HepG2 [4]) of 6.89%. The Activity (HepG2 [5]) was 46.69%, the CL [6] was 2.82 mL/min and the Activity (HepG2 [7]) was “Dde”. The Stability [8] was 45.6%, the Activity (HepG2 [9]) was 24.42% and the half-life at 40 µM [10] was 2.1 h. The Activity (HepG2 [11]) was 43.33%, the Activity [12] was “Non-Toxic” and the inhibition (MDA-MB-231) was “Dde”. The Activity (HepG2 [13]) was 1.13%, the Activity [14] was “Non-Toxic” and the IC50 (Histone deacetylase 8) was 2120 nM. For the same compound, the IC50 (Histone deacetylase 3) was 242 nM, the Activity (H22 [15]) was 83% and the Activity (PC-3 [16]) was 59.5%. For the same compound, the Activity (HepG2 [17]) was 54.77%, the inhibition (Histone deacetylase 2) was “Active” and the Activity (HepG2 [18]) was 1.33%. The Activity (H22 [19]) was “Active”, the Activity (H22 [20]) was “Active” and the Activity (HepG2 [21]) was “Active”. It also gave a viability at 0.0075 µM (HepG2 [22]) of 71.6%.
